Assay results published in patent US10844077B2, “Thiazolyl-containing compounds for treating proliferative diseases” (Dana-Farber Cancer Institute, Inc., priority 2014, dated 2020).
Values joined by “and” are separate entries in the source; they are usually repeats but may differ in a detail not shown here. Equal entries are not always repeated.

Tests used:
Format in all cases: cell-based
[1] = molecular target: NDR2 (Homo sapiens (Human), UniProt Q9Y2H1); experiment: KINATIV assay; settings: 1 μM, 90 minutes, BCWM.1 cells
Summary of the method: (§1)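 Cell lysate + ATP-biotin probe (direct labeling); bound kinases ID'd/quantitated by ACTIVX. Cpds in duplicate vs duplicate or quadruplicate controls.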

[2] = molecular target: SMG1 (Homo sapiens (Human), UniProt Q96Q15); experiment: KINATIV assay; settings: 1 μM, 90 minutes, BCWM.1 cells
Summary of the method: as §1

[3] = molecular target: MAP2K5 (Homo sapiens (Human), UniProt Q13163); experiment: KINATIV assay; settings: 1 μM, 90 minutes, BCWM.1 cells
Summary of the method: as §1

[4] = molecular target: CHK2 (Homo sapiens (Human), UniProt O96017); experiment: KINATIV assay; settings: 1 μM, 90 minutes, BCWM.1 cells
Summary of the method: as §1

[5] = molecular target: MST3 (Homo sapiens (Human), UniProt Q9Y6E0); experiment: KINATIV assay; settings: 1 μM, 90 minutes, BCWM.1 cells
Summary of the method: as §1

[6] = molecular target: kinases in BCWM.1 cells (Homo sapiens, UniProt Q8TBX8); experiment: KINATIV assay of compounds I-3 and I-9, lysate directly labeled with ATP-biotin probe (no GF); settings: PIP4K2C; ATP; 1 μM, 90 min; no GF
Experimental: (§2) The cells were harvested and lysed. […] Bound kinases were identified and quantitated by ACTIVX as described in Patricelli et al., Biochemistry, 2007, 46(2): 350-358. The compounds were tested in duplicates against duplicate or quadruplicate control samples.

[7] = molecular target: kinases in BCWM.1 cells (Homo sapiens, UniProt P42680); experiment: as above; settings: TEC; Activation Loop; 1 μM, 90 min; no GF
Experimental: as §2

[8] = molecular target: kinases in BCWM.1 cells (Homo sapiens, UniProt Q96BR1); experiment: as above; settings: SGK3; Lys1; 1 μM, 90 min; no GF
Experimental: as §2

[9] = molecular target: kinases in BCWM.1 cells (Homo sapiens, UniProt O00750); experiment: as above; settings: PIK3C2B; ATP; 1 μM, 90 min; no GF
Experimental: as §2

[10] = molecular target: kinases in BCWM.1 cells (Homo sapiens, UniProt Q9NRH2); experiment: as above; settings: SNRK; Lys2; 1 μM, 90 min; no GF
Experimental: as §2

[11] = molecular target: kinases in BCWM.1 cells (Homo sapiens, UniProt Q16512); experiment: as above; settings: PKN1; Lys1; 1 μM, 90 min; no GF
Experimental: as §2

[12] = molecular target: kinases in BCWM.1 cells (Homo sapiens, UniProt Q13464); experiment: as above; settings: ROCK1; Protein Kinase Domain; 1 μM, 90 min; no GF
Experimental: as §2

[13] = molecular target: kinases in BCWM.1 cells (Homo sapiens, UniProt O75385); experiment: as above; settings: ULK1; Lys2; 1 μM, 90 min; no GF
Experimental: as §2

[14] = molecular target: kinases in BCWM.1 cells (Homo sapiens, UniProt Q9BZL6); experiment: as above; settings: PKD2; Lys1; 1 μM, 90 min; no GF
Experimental: as §2

[15] = molecular target: kinases in BCWM.1 cells (Homo sapiens, UniProt Q8NEB9); experiment: as above; settings: PIK3C3; ATP; 1 μM, 90 min; no GF
Experimental: as §2

[16] = molecular target: kinases in BCWM.1 cells (Homo sapiens, UniProt Q00536); experiment: as above
Experimental: as §2

[17] = molecular target: kinases in BCWM.1 cells (Homo sapiens, UniProt Q58A45); experiment: as above; settings: PAN3; Protein Kinase Domain; 1 μM, 90 min; no GF
Experimental: as §2

[18] = molecular target: kinases in BCWM.1 cells (Homo sapiens, UniProt Q86UE8); experiment: as above; settings: TLK2; Lys2; 1 μM, 90 min; no GF
Experimental: as §2

[19] = molecular target: kinases in BCWM.1 cells (Homo sapiens, UniProt Q9UBS0); experiment: as above; settings: p70S6Kb; Lys2; 1 μM, 90 min; no GF
Experimental: as §2

[20] = molecular target: kinases in BCWM.1 cells (Homo sapiens, UniProt Q86Y07); experiment: as above; settings: VRK2; Lys2; 1 μM, 90 min; no GF
Experimental: as §2

[21] = molecular target: kinases in BCWM.1 cells (Homo sapiens, UniProt P48736); experiment: as above; settings: PIK3CG; ATP; 1 μM, 90 min; no GF
Experimental: as §2

[22] = molecular target: kinases in BCWM.1 cells (Homo sapiens, UniProt P51957); experiment: as above; settings: NEK4; Lys2; 1 μM, 90 min; no GF
Experimental: as §2

[23] = molecular target: kinases in BCWM.1 cells (Homo sapiens, UniProt P04049); experiment: as above; settings: RAF1; Lys2; 1 μM, 90 min; no GF
Experimental: as §2

[24] = molecular target: kinases in BCWM.1 cells (Homo sapiens, UniProt P43405); experiment: as above; settings: SYK; Activation Loop; 1 μM, 90 min; no GF
Experimental: as §2

[25] = molecular target: kinases in BCWM.1 cells (Homo sapiens, UniProt Q16816); experiment: as above; settings: PHKg1; Protein Kinase Domain; 1 μM, 90 min; no GF
Experimental: as §2

[26] = molecular target: kinases in BCWM.1 cells (Homo sapiens, UniProt P21127); experiment: as above; settings: PITSLRE; Lys2; 1 μM, 90 min; no GF
Experimental: as §2

[27] = molecular target: kinases in BCWM.1 cells (Homo sapiens, UniProt Q9NYL2); experiment: as above; settings: ZAK; Lys1; 1 μM, 90 min; no GF
Experimental: as §2

[28] = molecular target: LOK (Homo sapiens (Human), UniProt O94804); experiment: KINATIV assay; settings: 1 μM, 90 minutes, BCWM.1 cells
Summary of the method: as §1

[29] = molecular target: PIK3C3 (Homo sapiens (Human), UniProt Q8NEB9); experiment: KINATIV assay; settings: 1 μM, 90 minutes, BCWM.1 cells
Summary of the method: as §1

Chain of LOK (O94804 whole entry): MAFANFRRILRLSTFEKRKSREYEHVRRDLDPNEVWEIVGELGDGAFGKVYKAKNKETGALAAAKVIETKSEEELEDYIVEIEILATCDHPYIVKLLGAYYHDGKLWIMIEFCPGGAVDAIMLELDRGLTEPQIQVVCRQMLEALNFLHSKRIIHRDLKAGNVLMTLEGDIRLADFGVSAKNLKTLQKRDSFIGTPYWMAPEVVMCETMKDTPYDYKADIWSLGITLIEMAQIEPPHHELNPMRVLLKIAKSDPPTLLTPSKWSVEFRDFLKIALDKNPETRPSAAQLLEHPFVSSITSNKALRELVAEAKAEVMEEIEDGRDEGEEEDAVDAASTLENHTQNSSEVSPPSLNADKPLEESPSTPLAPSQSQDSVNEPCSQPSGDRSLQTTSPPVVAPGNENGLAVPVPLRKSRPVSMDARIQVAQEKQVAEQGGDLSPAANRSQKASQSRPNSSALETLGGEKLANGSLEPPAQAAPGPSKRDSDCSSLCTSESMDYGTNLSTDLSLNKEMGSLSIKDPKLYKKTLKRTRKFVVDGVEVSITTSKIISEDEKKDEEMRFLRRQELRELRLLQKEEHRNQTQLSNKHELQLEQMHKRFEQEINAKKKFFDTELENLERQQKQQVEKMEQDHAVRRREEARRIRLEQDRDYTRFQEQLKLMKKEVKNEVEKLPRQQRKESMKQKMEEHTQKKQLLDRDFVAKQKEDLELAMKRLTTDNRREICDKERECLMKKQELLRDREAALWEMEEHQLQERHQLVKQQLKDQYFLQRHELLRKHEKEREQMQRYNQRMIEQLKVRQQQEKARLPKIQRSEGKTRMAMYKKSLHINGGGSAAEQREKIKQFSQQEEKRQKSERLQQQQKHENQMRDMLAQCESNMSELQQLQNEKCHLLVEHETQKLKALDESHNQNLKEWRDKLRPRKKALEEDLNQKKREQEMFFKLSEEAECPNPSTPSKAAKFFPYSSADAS
Chain of NDR2 (Q9Y2H1 whole entry): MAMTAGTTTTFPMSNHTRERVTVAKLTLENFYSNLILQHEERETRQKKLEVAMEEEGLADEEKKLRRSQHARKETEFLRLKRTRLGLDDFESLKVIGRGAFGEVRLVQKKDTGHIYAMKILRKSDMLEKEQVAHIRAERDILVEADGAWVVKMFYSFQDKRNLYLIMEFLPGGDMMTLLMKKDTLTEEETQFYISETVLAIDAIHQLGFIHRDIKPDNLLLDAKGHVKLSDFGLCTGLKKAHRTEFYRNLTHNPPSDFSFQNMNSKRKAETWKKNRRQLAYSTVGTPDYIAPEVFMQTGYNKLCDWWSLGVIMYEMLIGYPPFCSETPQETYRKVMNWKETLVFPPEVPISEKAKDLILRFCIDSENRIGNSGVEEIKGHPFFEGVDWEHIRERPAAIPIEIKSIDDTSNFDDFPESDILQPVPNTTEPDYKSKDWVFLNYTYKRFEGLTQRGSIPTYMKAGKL
Chain of CHK2 (O96017 whole entry): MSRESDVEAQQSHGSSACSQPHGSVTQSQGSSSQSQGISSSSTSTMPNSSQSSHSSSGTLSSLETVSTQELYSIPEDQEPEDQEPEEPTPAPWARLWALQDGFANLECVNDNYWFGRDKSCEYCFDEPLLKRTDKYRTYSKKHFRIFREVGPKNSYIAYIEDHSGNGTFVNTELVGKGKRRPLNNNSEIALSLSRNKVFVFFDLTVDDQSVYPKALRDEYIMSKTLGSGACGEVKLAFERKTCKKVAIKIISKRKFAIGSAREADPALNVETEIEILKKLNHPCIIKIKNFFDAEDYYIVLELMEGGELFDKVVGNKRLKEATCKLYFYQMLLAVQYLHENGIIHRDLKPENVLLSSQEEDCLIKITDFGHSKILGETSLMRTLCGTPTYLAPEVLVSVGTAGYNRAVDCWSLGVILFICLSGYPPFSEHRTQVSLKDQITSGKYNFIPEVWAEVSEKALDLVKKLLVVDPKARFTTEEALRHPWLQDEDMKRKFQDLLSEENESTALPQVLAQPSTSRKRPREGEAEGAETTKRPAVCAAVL
Chain of MAP2K5 (Q13163 whole entry): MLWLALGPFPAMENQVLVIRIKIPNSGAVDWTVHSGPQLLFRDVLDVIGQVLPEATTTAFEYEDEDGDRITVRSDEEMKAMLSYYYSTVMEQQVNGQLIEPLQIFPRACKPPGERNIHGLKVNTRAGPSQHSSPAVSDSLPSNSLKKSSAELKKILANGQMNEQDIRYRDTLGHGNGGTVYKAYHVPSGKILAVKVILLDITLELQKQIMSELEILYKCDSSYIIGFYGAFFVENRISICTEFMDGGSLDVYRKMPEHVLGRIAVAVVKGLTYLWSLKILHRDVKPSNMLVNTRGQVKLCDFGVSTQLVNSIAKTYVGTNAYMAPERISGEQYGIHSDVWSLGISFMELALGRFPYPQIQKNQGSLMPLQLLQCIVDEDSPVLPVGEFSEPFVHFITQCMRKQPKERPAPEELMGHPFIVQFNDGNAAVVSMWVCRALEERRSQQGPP
Chain of PIK3C3 (Q8NEB9 whole entry): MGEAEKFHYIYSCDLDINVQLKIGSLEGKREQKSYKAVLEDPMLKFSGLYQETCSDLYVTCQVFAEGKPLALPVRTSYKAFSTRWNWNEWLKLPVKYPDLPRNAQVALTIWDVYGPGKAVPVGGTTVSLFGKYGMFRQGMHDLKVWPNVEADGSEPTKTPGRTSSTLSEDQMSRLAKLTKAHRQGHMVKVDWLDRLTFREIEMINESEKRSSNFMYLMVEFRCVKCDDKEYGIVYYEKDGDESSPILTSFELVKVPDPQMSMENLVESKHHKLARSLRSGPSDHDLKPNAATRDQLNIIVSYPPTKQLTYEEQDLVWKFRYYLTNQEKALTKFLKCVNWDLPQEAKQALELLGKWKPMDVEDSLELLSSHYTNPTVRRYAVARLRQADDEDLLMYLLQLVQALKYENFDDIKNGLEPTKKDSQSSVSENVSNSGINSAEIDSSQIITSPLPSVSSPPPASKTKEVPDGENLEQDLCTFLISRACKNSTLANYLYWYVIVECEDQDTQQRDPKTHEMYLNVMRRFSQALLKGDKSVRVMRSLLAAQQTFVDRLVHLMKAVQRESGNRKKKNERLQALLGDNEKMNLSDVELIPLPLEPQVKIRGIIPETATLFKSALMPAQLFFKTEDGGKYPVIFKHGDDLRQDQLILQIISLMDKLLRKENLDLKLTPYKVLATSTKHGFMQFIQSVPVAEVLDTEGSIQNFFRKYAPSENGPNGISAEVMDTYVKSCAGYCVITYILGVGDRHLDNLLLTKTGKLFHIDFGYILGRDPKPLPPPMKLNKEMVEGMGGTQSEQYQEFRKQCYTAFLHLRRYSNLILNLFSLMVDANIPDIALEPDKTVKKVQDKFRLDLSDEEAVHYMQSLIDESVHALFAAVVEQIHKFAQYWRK
Chain of MST3 (Q9Y6E0 whole entry): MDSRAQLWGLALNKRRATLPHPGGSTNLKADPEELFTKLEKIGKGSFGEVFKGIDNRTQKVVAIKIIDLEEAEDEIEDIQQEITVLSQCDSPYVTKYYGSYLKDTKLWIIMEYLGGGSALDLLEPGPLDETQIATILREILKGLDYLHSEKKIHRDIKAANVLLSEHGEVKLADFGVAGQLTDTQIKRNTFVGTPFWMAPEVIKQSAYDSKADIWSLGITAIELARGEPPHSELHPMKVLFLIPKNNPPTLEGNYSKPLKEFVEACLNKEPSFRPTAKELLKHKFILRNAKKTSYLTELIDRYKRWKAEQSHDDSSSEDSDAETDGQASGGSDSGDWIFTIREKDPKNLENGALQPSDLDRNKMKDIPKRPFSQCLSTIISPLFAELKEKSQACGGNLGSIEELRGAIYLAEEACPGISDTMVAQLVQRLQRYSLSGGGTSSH
Chain of kinases in BCWM.1 cells (Homo sapiens, UniProt Q16512) (Q16512 2-942 limits assumed): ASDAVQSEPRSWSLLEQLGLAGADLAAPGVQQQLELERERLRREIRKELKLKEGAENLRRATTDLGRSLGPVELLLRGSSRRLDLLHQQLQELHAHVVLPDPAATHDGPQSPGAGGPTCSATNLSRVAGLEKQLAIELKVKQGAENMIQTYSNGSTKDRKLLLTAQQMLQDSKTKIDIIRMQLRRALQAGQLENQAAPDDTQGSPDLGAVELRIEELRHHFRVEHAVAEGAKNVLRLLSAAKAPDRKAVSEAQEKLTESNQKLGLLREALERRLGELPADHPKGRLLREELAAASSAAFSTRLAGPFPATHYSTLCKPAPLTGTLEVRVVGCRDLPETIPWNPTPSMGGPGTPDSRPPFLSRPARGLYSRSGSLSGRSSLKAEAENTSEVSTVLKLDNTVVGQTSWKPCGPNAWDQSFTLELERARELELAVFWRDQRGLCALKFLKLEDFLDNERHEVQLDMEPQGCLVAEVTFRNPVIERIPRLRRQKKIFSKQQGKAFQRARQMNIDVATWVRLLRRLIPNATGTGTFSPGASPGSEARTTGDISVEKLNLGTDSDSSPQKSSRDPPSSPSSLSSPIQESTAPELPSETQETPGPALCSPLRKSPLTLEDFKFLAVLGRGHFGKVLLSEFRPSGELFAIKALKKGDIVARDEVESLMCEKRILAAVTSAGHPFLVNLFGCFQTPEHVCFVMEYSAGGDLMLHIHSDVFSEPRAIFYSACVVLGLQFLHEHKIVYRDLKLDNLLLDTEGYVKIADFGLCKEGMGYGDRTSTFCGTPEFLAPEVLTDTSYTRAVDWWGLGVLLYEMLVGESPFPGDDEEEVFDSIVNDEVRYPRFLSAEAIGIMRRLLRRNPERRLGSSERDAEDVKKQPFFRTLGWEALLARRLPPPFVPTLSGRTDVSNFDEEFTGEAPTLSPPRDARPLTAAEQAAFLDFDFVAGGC

SMILES	% change of MS signal compared to control sample [1]	% change of MS signal compared to control sample [2] [%]	% change of MS signal compared to control sample [3]	% change of MS signal compared to control sample [4]	% change of MS signal compared to control sample [5]	% change of MS signal compared to control sample [6] [%]	% change of MS signal compared to control sample [7] [%]	% change of MS signal compared to control sample [8] [%]	% change of MS signal compared to control sample [9] [%]	% change of MS signal compared to control sample [10] [%]	% change of MS signal compared to control sample [11] [%]	% change of MS signal compared to control sample [12] [%]	% change of MS signal compared to control sample [13] [%]	% change of MS signal compared to control sample [14] [%]	% change of MS signal compared to control sample [15] [%]	% change of MS signal compared to control sample [16] [%]	% change of MS signal compared to control sample [17] [%]	% change of MS signal compared to control sample [18] [%]	% change of MS signal compared to control sample [19] [%]	% change of MS signal compared to control sample [20] [%]	further results
C=CC(=O)N1CCC(CNc2nccc(Nc3ncc(C(=O)Nc4c(C)cccc4C)s3)n2)C1 (racemic) [Example I-8]	1.9% and 9.1%	23.1	19.2% and 30.9%	−14.3% and −10.9%	−1.5% and −7.7%	–	–	–	–	–	–	–	–	–	–	–	–	–	–	–	–
C=CC(=O)N1CC[C@H](Nc2nccc(Nc3ncc(C(=O)Nc4c(C)cccc4C)s3)n2)C1 [Example I-3]	–	–	–	–	–	−14.1	>91	−0.4	−1.8	46.4	−3.3	2.6	9.9	5.5	2.4	10	−17.5	−3	−36.7	−13.9	% change of MS signal compared to control sample [21]: −9.6%; % change of MS signal compared to control sample [22]: 10.1%; % change of MS signal compared to control sample [23]: −18.8%; % change of MS signal compared to control sample [24]: −1.2%; % change of MS signal compared to control sample [25]: 31.7%; % change of MS signal compared to control sample [26]: −14.1%; % change of MS signal compared to control sample [27]: 1.6%
C=CC(=O)N1CCC(Cn2ccc(Nc3ncc(C(=O)Nc4c(C)cccc4Cl)s3)n2)C1 (stereo not shown) [II-1]	–	–	–	–	5.9% and 2.0%	–	–	–	–	–	–	–	–	–	–	–	–	–	–	–	% change of MS signal compared to control sample [28]: −5.5% and −15.4%; % change of MS signal compared to control sample [29]: −4.7% and −11.6%
C=CC(=O)N1CC[C@@H](Nc2nccc(Nc3ncc(C(=O)Nc4c(C)cccc4C)s3)n2)C1 [Example I-4]	−42.0%	–	–	−7.9% and 1.0%	–	–	–	–	–	–	–	–	–	–	–	–	–	–	–	–	% change of MS signal compared to control sample [28]: −27.4%; % change of MS signal compared to control sample [29]: −14.1% and −5.5%
C=CC(=O)N1CCCCC(Nc2nccc(Nc3ncc(C(=O)Nc4c(C)cccc4C)s3)n2)C1 (stereo not shown) [Example I-7]	–	21.5	37.6% and 45.7%	–	–	–	–	–	–	–	–	–	–	–	–	–	–	–	–	–	–
CCC(=O)N1CC[C@H](Nc2nccc(Nc3ncc(C(=O)Nc4c(C)cccc4C)s3)n2)C1 [Example I-9]	–	–	–	–	–	10	97.4	1.1	28.5	28.6	−4.9	−7.3	−5.7	−11	−23.4	4.1	23.2	−13.3	24.3	6.2	% change of MS signal compared to control sample [21]: −15.1%; % change of MS signal compared to control sample [22]: −13.1%; % change of MS signal compared to control sample [23]: 9.9%; % change of MS signal compared to control sample [24]: −6.5%; % change of MS signal compared to control sample [25]: −51%; % change of MS signal compared to control sample [26]: −10.8%; % change of MS signal compared to control sample [27]: −9.3%
